Test results taken from patent publication US9113629B2, “4-amino-6-(4-substituted-phenyl)-picolinates and 6-amino-2-(4-substituted-phenyl)-pyrimidine-4-carboxylates and their use as herbicides” (DOW AGROSCIENCES LLC, priority 2013, dated 2015).

Tests used:
[1] = tested on: APESV: bentgrass (Apera spica-venti); test: Post-emergent Test III, herbicidal activity in wheat and barley; format: in vivo; settings: Table 9, 21 d; for pest or weed control at 35 g/ha / pest or weed control at 70 g/ha / pest or weed control at 140 g/ha: Apera spica-venti, post-emergence, 504 h, post-emergent, read-out: Visual Growth Reduction (%) 21 Days After Application APESV; for pest or weed control at 35 g/ha: 35 g ai/ha; for pest or weed control at 70 g/ha: 70 g ai/ha; for pest or weed control at 140 g/ha: 140 g ai/ha; for GR50 APESV: dose for 50 percent growth reduction; for GR50 APESV / GR80 APESV: probit analysis; for GR80 APESV: dose for 80 percent growth reduction
Summary of the method: (§1)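 Plants at the second to third true-leaf stage, grown in a greenhouse at about 18/17 °C with a 14 h photoperiod, were sprayed post-emergence at 187 L/ha with the high rate and ½× to 1/16× serial dilutions in an acetone/DMSO/crop-oil/surfactant carrier. Injury was rated visually at 21 d on a 0–100% scale, and GR20–GR90 were derived by probit analysis.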

[2] = tested on: TRZSS: wheat, including spring and winter (Triticum aestivum); test: as above; format: in vivo; settings: Table 9, 21 d; for GR20 TRZSS: dose for 20 percent growth reduction, probit analysis; for pest or weed control at 35 g/ha / pest or weed control at 70 g/ha / pest or weed control at 140 g/ha: Triticum aestivum, post-emergence, 504 h, post-emergent, read-out: Visual Growth Reduction (%) 21 Days After Application TRZSS; for pest or weed control at 35 g/ha: 35 g ai/ha; for pest or weed control at 70 g/ha: 70 g ai/ha; for pest or weed control at 140 g/ha: 140 g ai/ha
Summary of the method: as §1

[3] = tested on: HORSS: barley, including spring and winter (Hordeum vulgare); test: as above; format: in vivo; settings: Table 9, 21 d; for pest or weed control at 35 g/ha / pest or weed control at 70 g/ha / pest or weed control at 140 g/ha: Hordeum vulgare, post-emergence, 504 h, post-emergent, read-out: Visual Growth Reduction (%) 21 Days After Application HORSS; for pest or weed control at 35 g/ha: 35 g ai/ha; for pest or weed control at 70 g/ha: 70 g ai/ha; for pest or weed control at 140 g/ha: 140 g ai/ha; for GR20 HORSS: dose for 20 percent growth reduction, probit analysis
Summary of the method: as §1

[4] = tested on: LOLSS: ryegrass including, Italian ryegrass (Lolium multiflorum), rigid ryegrass (Lolium rigidum), annual ryegrass (Lolium multiflorum subsp. Gaudini); test: as above; format: in vivo; settings: Table 9, probit analysis, 21 d; for GR50 LOLSS: dose for 50 percent growth reduction; for GR80 LOLSS: dose for 80 percent growth reduction
Summary of the method: as §1

[5] = tested on: KCHSC: kochia (Kochia scoparia); test: as above; format: in vivo; settings: Table 9, 21 d; for pest or weed control at 35 g/ha / pest or weed control at 70 g/ha / pest or weed control at 140 g/ha: Bassia scoparia, post-emergence, 504 h, post-emergent, read-out: Visual Growth Reduction (%) 21 Days After Application KCHSC; for pest or weed control at 35 g/ha: 35 g ai/ha; for pest or weed control at 70 g/ha: 70 g ai/ha; for pest or weed control at 140 g/ha: 140 g ai/ha; for GR50 KCHSC: dose for 50 percent growth reduction; for GR50 KCHSC / GR80 KCHSC: probit analysis; for GR80 KCHSC: dose for 80 percent growth reduction
Summary of the method: as §1

[6] = tested on: SETVI: green foxtail (Setaria viridis); test: as above; format: in vivo; settings: Table 9, 21 d; for pest or weed control at 35 g/ha / pest or weed control at 70 g/ha / pest or weed control at 140 g/ha: Setaria viridis, post-emergence, 504 h, post-emergent, read-out: Visual Growth Reduction (%) 21 Days After Application SETVI; for pest or weed control at 35 g/ha: 35 g ai/ha; for pest or weed control at 70 g/ha: 70 g ai/ha; for pest or weed control at 140 g/ha: 140 g ai/ha; for GR50 SETVI: dose for 50 percent growth reduction; for GR50 SETVI / GR80 SETVI: probit analysis; for GR80 SETVI: dose for 80 percent growth reduction
Summary of the method: as §1

[7] = as above; format: in vivo, Lolium multiflorum, Lolium rigidum; settings: Lolium multiflorum, post-emergence, 504 h, Table 9, post-emergent, 21 d, read-out: Visual Growth Reduction (%) 21 Days After Application LOLSS; for pest or weed control at 35 g/ha: 35 g ai/ha; for pest or weed control at 70 g/ha: 70 g ai/ha; for pest or weed control at 140 g/ha: 140 g ai/ha
Summary of the method: as §1

| SMILES | pest or weed control at 35 g/ha [1] [%] | pest or weed control at 70 g/ha [1] [%] | GR50 APESV [1] [g ai/ha] | GR80 APESV [1] [g ai/ha] | GR20 TRZSS [2] [g ai/ha] | pest or weed control at 35 g/ha [2] [%] | pest or weed control at 70 g/ha [2] [%] | pest or weed control at 35 g/ha [3] [%] | pest or weed control at 70 g/ha [3] [%] | GR20 HORSS [3] [g ai/ha] | GR50 LOLSS [4] [g ai/ha] | GR80 LOLSS [4] [g ai/ha] | pest or weed control at 35 g/ha [5] [%] | pest or weed control at 70 g/ha [5] [%] | GR50 KCHSC [5] [g ai/ha] | GR80 KCHSC [5] [g ai/ha] | pest or weed control at 35 g/ha [6] [%] | pest or weed control at 70 g/ha [6] [%] | GR50 SETVI [6] [g ai/ha] | GR80 SETVI [6] [g ai/ha] | also measured |
| --- | --- | --- | --- | --- | --- | --- | --- | --- | --- | --- | --- | --- | --- | --- | --- | --- | --- | --- | --- | --- | --- |
| COC(=O)c1nc(-c2ccc(Br)cc2)c(Cl)c(N)c1Cl [Compound 47] | 95 to 100 | 95 to 100 | 10 | 14 | 1 | 85 to 94 | 95 to 100 | 95 to 100 | 95 to 100 | 1 | 80 | >140 | 85 to 94 | 75 to 84 | 20 | 45 | 0 to 29 | 75 to 84 | 51 | 104 | pest or weed control at 140 g/ha [1]: 95 to 100%; pest or weed control at 140 g/ha [2]: 95 to 100%; pest or weed control at 140 g/ha [3]: 95 to 100%; pest or weed control at 140 g/ha [5]: 95 to 100%; pest or weed control at 140 g/ha [6]: 85 to 94%; pest or weed control at 35 g/ha [7]: 0 to 29%; pest or weed control at 70 g/ha [7]: 45 to 59%; pest or weed control at 140 g/ha [7]: 60 to 74%; melting point: 159.6 to 161.1 °C |
| COC(=O)c1nc(-c2cc(F)c(Br)cc2F)c(F)c(N)c1Cl [Compound 51, methyl 4-amino-6-(4-bromo-2,5-difluorophenyl)-3-chloro-5-fluoropicolinate] | 85 to 94 | 95 to 100 | 3 | 11 | 1 | 85 to 94 | 95 to 100 | 85 to 94 | 95 to 100 | 1 | 3 | 61 | 85 to 94 | 95 to 100 | 4 | 14 | 75 to 84 | 85 to 94 | 24 | 49 | pest or weed control at 35 g/ha [7]: 75 to 84%; pest or weed control at 70 g/ha [7]: 75 to 84%; melting point: 153 to 154 °C |
| COC(=O)c1nc(-c2cc(F)c(I)cc2F)c(F)c(N)c1Cl [Compound 55, methyl 4-amino-3-chloro-6-(2,5-difluoro-4-iodophenyl)-5-fluoropicolinate] | 75 to 84 | 95 to 100 | 4 | 18 | 1 | 85 to 94 | 95 to 100 | 85 to 94 | 95 to 100 | 1 | 21 | 50 | 85 to 94 | 85 to 94 | 4 | 21 | 75 to 84 | 85 to 94 | 29 | 46 | pest or weed control at 35 g/ha [7]: 60 to 74%; pest or weed control at 70 g/ha [7]: 75 to 84%; melting point: 142 to 144 °C |
| Nc1cc(-c2ccc(Br)cc2F)nc(C(=O)O)c1Cl [Compound 74] | 85 to 94 | 85 to 94 | 10 | 25 | 1 | 75 to 84 | 75 to 84 | 85 to 94 | 85 to 94 | 1 | >140 | >140 | 85 to 94 | 95 to 100 | 3 | 11 | 75 to 84 | 85 to 94 | 3 | 49 | pest or weed control at 35 g/ha [7]: 30 to 44%; pest or weed control at 70 g/ha [7]: 45 to 59%; melting point: 186 to 187.3 °C |
| COC(=O)c1nc(-c2ccc(I)cc2)c(Cl)c(N)c1Cl [Compound 96] | 30 to 44 | 30 to 44 | 125 | >140 | 1 | 85 to 94 | 85 to 94 | 85 to 94 | 95 to 100 | 1 | 48 | >140 | 0 to 29 | 60 to 74 | 79 | >140 | 0 to 29 | 60 to 74 | 72 | 128 | pest or weed control at 140 g/ha [1]: 45 to 59%; pest or weed control at 140 g/ha [2]: 95 to 100%; pest or weed control at 140 g/ha [3]: 95 to 100%; pest or weed control at 140 g/ha [5]: 60 to 74%; pest or weed control at 140 g/ha [6]: 75 to 84%; pest or weed control at 35 g/ha [7]: 45 to 59%; pest or weed control at 70 g/ha [7]: 60 to 74%; pest or weed control at 140 g/ha [7]: 60 to 74%; melting point: 187.2 to 189.9 °C |
| C=Cc1c(C(=O)O)nc(-c2ccc(Br)cc2)c(F)c1N [Compound 117] | 45 to 59 | 60 to 74 | 41 | >140 | 32 | 0 to 29 | 30 to 44 | 0 to 29 | 0 to 29 | 73 | 41 | >140 | 60 to 74 | 75 to 84 | 20 | 67 | 0 to 29 | 60 to 74 | 59 | 99 | pest or weed control at 35 g/ha [7]: 45 to 59%; pest or weed control at 70 g/ha [7]: 60 to 74%; melting point: 149 to 151 °C |
